Results published in publication PMC5951806, “Rapid labelling and covalent inhibition of intracellular native proteins using ligand-directed N-acyl-N-alkyl sulfonamide” (Nature Communications, 2018).

Key:
Assay in all cases: TMT LC-MSMS of 11-labelled proteins
Format in all cases: cell-based
[1] = target: Tubulin beta-4B chain (TUBB4B) (Homo sapiens, UniProt P68371)
[2] = target: T1, Aldehyde dehydrogenase family 1 member A3 (ALDH1A3) (Homo sapiens, UniProt P47895)
T1 sequence (P47895 1-512): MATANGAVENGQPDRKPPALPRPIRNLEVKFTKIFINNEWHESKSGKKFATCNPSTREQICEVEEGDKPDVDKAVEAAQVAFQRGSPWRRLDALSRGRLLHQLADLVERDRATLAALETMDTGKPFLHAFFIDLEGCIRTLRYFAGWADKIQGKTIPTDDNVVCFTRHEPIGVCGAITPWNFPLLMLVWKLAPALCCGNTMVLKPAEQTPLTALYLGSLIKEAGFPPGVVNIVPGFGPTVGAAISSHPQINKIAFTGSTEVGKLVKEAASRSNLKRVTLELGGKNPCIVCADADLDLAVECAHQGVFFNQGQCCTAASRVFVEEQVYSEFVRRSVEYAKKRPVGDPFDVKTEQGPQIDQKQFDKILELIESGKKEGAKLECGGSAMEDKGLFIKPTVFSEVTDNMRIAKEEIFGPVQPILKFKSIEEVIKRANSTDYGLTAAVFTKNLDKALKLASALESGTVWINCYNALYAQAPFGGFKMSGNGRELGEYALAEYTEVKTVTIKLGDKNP

[3] = target: L-lactate dehydrogenase B chain (LDHB) (Homo sapiens, UniProt P07195)
[4] = target: ATP synthase subunit beta, mitochondrial (ATP5B) (Homo sapiens, UniProt P06576)
[5] = sheet Exp1, SKBR3 cells, 11 0.5 µM 3 h vs DMSO
[6] = sheet Exp1, SKBR3 cells, 11 0.5 µM 3 h vs with PU-H71 10 µM
[7] = sheet Merged, SKBR3 cells, 11 0.5 µM 3 h vs DMSO
[8] = sheet Merged, SKBR3 cells, 11 0.5 µM 3 h vs with PU-H71 10 µM

Chain of L-lactate dehydrogenase B chain (LDHB) (P07195 whole entry): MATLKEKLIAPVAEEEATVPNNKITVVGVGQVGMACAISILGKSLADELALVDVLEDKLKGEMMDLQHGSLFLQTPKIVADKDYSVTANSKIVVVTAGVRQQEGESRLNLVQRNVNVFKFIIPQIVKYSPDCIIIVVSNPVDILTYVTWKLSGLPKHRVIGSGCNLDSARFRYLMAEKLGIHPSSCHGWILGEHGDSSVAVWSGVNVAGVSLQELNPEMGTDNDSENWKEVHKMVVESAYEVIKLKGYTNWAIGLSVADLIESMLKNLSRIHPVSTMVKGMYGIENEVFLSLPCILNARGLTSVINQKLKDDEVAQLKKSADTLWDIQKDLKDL
Chain of Tubulin beta-4B chain (TUBB4B) (P68371 whole entry): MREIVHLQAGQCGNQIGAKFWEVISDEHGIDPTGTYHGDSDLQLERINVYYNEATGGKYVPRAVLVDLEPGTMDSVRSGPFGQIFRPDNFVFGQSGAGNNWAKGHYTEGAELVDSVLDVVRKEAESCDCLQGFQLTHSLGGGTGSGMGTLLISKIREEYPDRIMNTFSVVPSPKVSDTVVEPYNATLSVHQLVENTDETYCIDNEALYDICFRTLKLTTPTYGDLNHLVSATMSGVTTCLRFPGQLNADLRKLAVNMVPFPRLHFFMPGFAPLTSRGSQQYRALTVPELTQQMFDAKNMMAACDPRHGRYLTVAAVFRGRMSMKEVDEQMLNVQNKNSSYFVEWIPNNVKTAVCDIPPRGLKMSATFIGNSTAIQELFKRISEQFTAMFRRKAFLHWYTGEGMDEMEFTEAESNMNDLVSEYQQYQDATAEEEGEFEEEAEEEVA
Chain of Tubulin beta-4B chain (TUBB4B) (P68363 whole entry partner): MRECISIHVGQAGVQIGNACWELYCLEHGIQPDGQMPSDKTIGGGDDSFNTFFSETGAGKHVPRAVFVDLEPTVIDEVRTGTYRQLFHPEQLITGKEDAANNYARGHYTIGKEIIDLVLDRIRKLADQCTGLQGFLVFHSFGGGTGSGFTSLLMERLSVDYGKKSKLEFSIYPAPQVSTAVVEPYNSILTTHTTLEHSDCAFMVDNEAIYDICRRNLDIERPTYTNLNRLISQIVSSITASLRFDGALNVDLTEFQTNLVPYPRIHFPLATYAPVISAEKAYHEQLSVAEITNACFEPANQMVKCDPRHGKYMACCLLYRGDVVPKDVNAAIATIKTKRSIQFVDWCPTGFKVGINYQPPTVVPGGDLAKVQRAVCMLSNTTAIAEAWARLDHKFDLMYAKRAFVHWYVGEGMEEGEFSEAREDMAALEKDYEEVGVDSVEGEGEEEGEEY

## CC(=O)Oc1ccc2c(c1)Oc1cc(OC(C)=O)ccc1C21OC(=O)c2cc(C(=O)NCCOCCOCCNC(=O)CCCC(=O)N(CC#N)S(=O)(=O)c3ccc(C(=O)NCCCn4c(Sc5cc6c(cc5I)OCO6)nc5c(N)ncnc54)cc3)ccc21 [compound 11]
[1]; Exp3, TUBB4B
  Abundance Ratio: (11) / (11 with PU-H71): 1.068
  Abundance Ratio: (11) / (DMSO): 3.456
  Abundances (Grouped): 11: 287.5
  Abundances (Grouped): 11 with PU-H71: 269.1
[1]; [5]
  Abundance Ratio: (11) / (DMSO): 3.652
[1]; [6]
  Abundance Ratio: (11) / (11 with PU-H71): 1.046
[1]; sheet Exp2, TUBB4B
  Abundance Ratio: (11) / (11 with PU-H71): 0.891
  Abundance Ratio: (11) / (DMSO): 2.612
  Abundances (Grouped): 11: 209.5
  Abundances (Grouped): 11 with PU-H71: 235
[1]; [7]
  Abundance Ratio: (11) / (DMSO): 3.477
[1]; [8]
  Abundance Ratio: (11) / (11 with PU-H71): 1.054
[2]; Exp3, ALDH1A3
  Abundance Ratio: (11) / (11 with PU-H71): 0.892
  Abundance Ratio: (11) / (DMSO): 4.34
  Abundances (Grouped): 11: 42.1
[2]; Exp3, ALDH1A3, with PU-H71
  Abundances (Grouped): 11 with PU-H71: 47.2
[2]; [5]
  Abundance Ratio: (11) / (DMSO): 5.076
[2]; [6]
  Abundance Ratio: (11) / (11 with PU-H71): 0.894
[2]; [7]
  Abundance Ratio: (11) / (DMSO): 4.694
[2]; [8]
  Abundance Ratio: (11) / (11 with PU-H71): 0.893
[3]; [5]
  Abundance Ratio: (11) / (DMSO): 3.283
[3]; [6]
  Abundance Ratio: (11) / (11 with PU-H71): 0.769
[3]; sheet Exp2, LDHB
  Abundance Ratio: (11) / (11 with PU-H71): 0.731
  Abundance Ratio: (11) / (DMSO): 3.172
  Abundances (Grouped): 11: 66.3
[3]; sheet Exp2, LDHB, with PU-H71
  Abundances (Grouped): 11 with PU-H71: 90.7
[3]; [7]
  Abundance Ratio: (11) / (DMSO): 3.227
[3]; [8]
  Abundance Ratio: (11) / (11 with PU-H71): 0.75
[4]; sheet Exp2, ATP5B
  Abundance Ratio: (11) / (11 with PU-H71): 0.866
  Abundance Ratio: (11) / (DMSO): 1.928
  Abundances (Grouped): 11: 141.5
[4]; sheet Exp2, ATP5B, with PU-H71
  Abundances (Grouped): 11 with PU-H71: 163.4
[4]; [7]
  Abundance Ratio: (11) / (DMSO): 1.928
[4]; [8]
  Abundance Ratio: (11) / (11 with PU-H71): 0.866
